Source: patent US20100184708A1, “USE OF GLY-PRO-GLU-OH (GPE) AS A THERAPEUTIC AGENT” (priority 2007, published 2010)

Test system: drug-resistant Mycobacterium tuberculosis
Conditions: peptide 10 micrograms per ml, seven days

NCC(=O)N1CCC[C@H]1C(=O)N[C@@H](CCC(=O)O)C(=O)O [IGF-I (1-3), Gly-Pro-Glu-OH]
% inhibition: 0.0%
